Several values for one entry are separate records, joined by “and”; a condition that tells them apart may be missing. Equal values may be shown once.
Experiments:
[1] = system: TGFBR1
[2] = system: IKKα
[3] = system: BV2 cells; experiment: MTS metabolic activity (cytotoxicity); assay type: cell-based, murine; details: BV2, MTS assay, 24 h, concentrations of 5 μM or less
Description: The human hepatocellular carcinoma HepG2 and human neuroblastoma SH-SY5Y cell lines were purchased from American Type Culture Collection (Manassas, VA, USA). The murine microglia BV2 cells were a generous gift from Dr. Biljana Božić Nedeljković (University of Belgrade, Belgrade, Serbia). Cells were cultured in Advanced Dulbecco’s modified Eagle’s medium (Gibco, Thermo Fisher Scientific, Waltham, MA, USA) supplemented with 10% fetal bovine serum (FBS, Gibco), 2 mM L-glutamine, 50 U/mL penicillin and 50 μg/mL streptomycin (Sigma, St. Louis, MO, USA) in a humidified atmosphere of 95% air and 5% CO2 at 37 °C, and grown to 80% confluence. Prior to cell treatment, complete medium was replaced with serum-free medium. […]
BV2 cells (5 × 10^3/well) and HepG2 and SH-SY5Y cells (1 × 10^4/well) were seeded in 96-well plates and assessed by MTS ([3-(4,5-dimethylthiazol-2-yl)-5-(3-carboxymethoxyphenyl)-2-(4-sulfophenyl)-2H tetrazolium, inner salt) assay for their response to compounds 94 and 95. Cells were treated with increasing concentrations of compounds (1–100 μM) in serum-free medium, and metabolic activity was assessed after 24 h using the CellTiter 96 Aqueous One Solution Cell Proliferation Assay (Promega, Madison, WI, USA), in accordance with the manufacturer’s instructions. Absorbance was measured with an automatic microplate reader (Tecan Safire^2, Switzerland) at a wavelength of 492 nm. […]

[4] = system: BMPR2
[5] = system: PIM2
[6] = in vitro; details: PAMPA, pH 7.4
[7] = system: mice (motor coordination); experiment: Rotarod test; details: 10 mg/kg i.p., mice
Description: For behavioral tests, the mice were selected randomly; each group consisted of 7–10 mice.
In the rotarod, locomotor activity, and MWM tests, only one dose effective in the scopolamine model of amnesia was evaluated.
Three days before the rotarod test, the mice were trained on the rotarod apparatus (Rotarod apparatus, May Commat RR0711, Turkey; rod diameter: 2 cm) that was rotated at a fixed speed of 18 rpm. In each training session, the mice were placed on the rotating rod for 3 min with an unlimited number of trials. The proper experiment was performed 24 h after the last training trial. […] Motor impairments in mice were defined as the inability to remain on the rotarod apparatus for 1 min. The results are expressed as the mean time spent on the rotarod.

[8] = system: KIT(V559D,T670I)
[9] = system: MLK1
[10] = system: PIK3CG
[11] = system: ERBB2
[12] = system: CSNK1G2
[13] = system: PLK1
[14] = system: MAPKAPK5
[15] = system: FGFR2
[16] = system: PIK3CA
[17] = system: CHEK1
[18] = system: TSSK1B
[19] = system: SNARK
[20] = system: CSNK1D
[21] = system: ABL1-nonphosphorylated
[22] = system: PIK3C2B
[23] = system: JAK3(JH1domain-catalytic)
[24] = system: CDK3
[25] = system: LCK
[26] = system: LPS-treated mice; experiment: Morris water maze task, LPS model of neuroinflammation; assay type: in vivo; details: 10 mg/kg i.p.; for escape latency, acquisition phase (days 1–6) of MWM: from day 2 (94) or day 3 (95) to day 6, vs LPS alone
Description: The compounds were administered for 10 consecutive days, and on the last 6 days of their administration, LPS was also administered intraperitoneally 5 h before the test compounds. On these 6 days, the acquisition phase of the MWM task was performed. One day later, the retention, drug-off trial of the MWM task was carried out.
In the LPS model adult male C57BL/6J mice (Animal Breeding Farm of the Faculty of Pharmacy, Jagiellonian University Medical College) of similar weight and age were used. […] The mice had unlimited access to food and water prior to the experiment. Specified conditions for the maintenance of mice were ensured throughout the experiment, including tree bedding (Transwior, Poland) and cage enrichment (tunnels, nesting material, wooden igloos, etc.). For behavioral tests, the mice were selected randomly; each group consisted of 7–10 mice. […] After in vivo tests, the animals were immediately euthanized, and their tissues were collected and stored for further ex vivo testing.
LPS (Lipopolysaccharide from Escherichia coli O111:B4, Sigma-Aldrich, Poland) was used to induce neuroinflammation in mice. […] They were administered intraperitoneally (i.p.) 60 min before the acquisition trial of the PA, NOR, and MWM tasks. […] In the rotarod, locomotor activity, and MWM tests, only one dose effective in the scopolamine model of amnesia was evaluated.
The Morris water maze is a circular, plastic, and gray-painted pool (120 cm in diameter and 60 cm in height), filled with water (up to about 48 cm below the edge to prevent an animal from jumping out), maintained at 23 ± 1 °C. The pool was divided into four equal quadrants (compass locations: NE, NW, SE, SW) by a computerized video tracking system (SMART, ver. 3.0; Panlab, Spain). An escape platform (11 cm in diameter and 47 cm in height) at a fixed location (the center of the NW quadrant, i.e., the target quadrant) was made of transparent Plexiglas, being invisible to the swimming animal, and was immersed 1 cm under the surface of water. The maze was lighted with an intensity of 45 lx. […] The time taken to reach the hidden platform (escape latency) on days 1–6 was recorded for each mouse and analyzed. Each animal was released from a different starting point and was allowed to swim for 60 s. […] On the seventh day (a drug-off trial conducted 24 h after the last training trial), the platform was removed from the pool, and a probe trial was performed (without drug treatmentassessment of memory retention).

[27] = target: hBChE
[28] = system: PIM1
[29] = system: KIT(D816V)
[30] = system: CSF1R
[31] = system: scopolamine-induced cognitive deficits in mice; experiment: Passive avoidance task, scopolamine-induced amnesia; assay type: in vivo; details: for efficacy in PA task: 5 mg/kg i.p., scopolamine model; for step-through latency, retention trial (PA task): 10 mg/kg i.p., vs scopolamine-treated control mice
Description: In the scopolamine model, the PA and NOR tasks were used for dose selection for further testing.
The mice had unlimited access to food and water prior to the experiment. Specified conditions for the maintenance of mice were ensured throughout the experiment, including tree bedding (Transwior, Poland) and cage enrichment (tunnels, nesting material, wooden igloos, etc.). For behavioral tests, the mice were selected randomly; each group consisted of 7–10 mice.
Scopolamine hydrobromide (Sigma-Aldrich, Poland) at the dose of 1 mg/kg was used to induce learning and memory deficits. For the in vivo tests, scopolamine was prepared in distilled water (Polfa Kutno, Poland) and was administered subcutaneously (s.c.) 30 min before behavioral tests during the acquisition (training) trial of PA and NOR tasks. […] They were administered intraperitoneally (i.p.) 60 min before the acquisition trial of the PA, NOR, and MWM tasks.
The PA apparatus (Panlab Harvard Apparatus, Spain) consists of a large white-colored illuminated compartment (26 cm × 26 cm × 34 cm) and a small black-colored compartment (13 cm × 7.5 cm × 7.5 cm), which are separated from each other by a guillotine gate (5 cm × 5 cm). The PA task is divided into two trials (i.e., the acquisition trial and the retention trial), each conducted 24 h apart. On the first day, during the acquisition trial (a conditioning phase), the test compounds (94 and 95, neflamapimod and vehicle) were injected. Also, before the acquisition trial, scopolamine or LPS was administered at selected time points. Then, each mouse was placed into the white compartment, and a 30 s habituation period began (guillotine gate is closed). After that, the guillotine gate was opened, and the mice were tested during the 180 s testing period. As soon as the mouse entered the black compartment of the PA device, the guillotine gate was closed and an electrical shock (intensity: 0.2 mA, duration: 2 s) was automatically applied through the grid floor. For each mouse, the latency between the opening of the guillotine gate and the mouse’s entering the black compartment was measured. On the next day, during the retention (drug-off) trial, the mice were placed again into the white compartment for a 30 s habituation period, and the latency to enter the black compartment was measured for each mouse.

[32] = system: EGFR
[33] = system: CDK9
[34] = system: MET
[35] = system: p38γ
[36] = system: ABL1-phosphorylated
[37] = system: ERK 2
[38] = system: MARK3
[39] = system: PDGFRA

CN(C)CCNC(=O)c1cc2c(cnn2CC2CCCCC2)cc1Cc1ccc(F)cc1F [Compound 95, 1-(Cyclohexylmethyl)-5-(2,4-difluorobenzyl)-N-(2-(dimethylamino)ethyl)-1H-indazole-6-carboxamide]
RA @ 1000nM [1]: 100%
RA @ 10000nM [1]: 100%
RA @ 1000nM [2]: 92%
RA @ 10000nM [2]: 75%
cell viability [3]: did not affect cell viability
RA @ 1000nM [4]: 89%
RA @ 10000nM [4]: 92%
RA @ 1000nM [5]: 100%
RA @ 10000nM [5]: 100%
Papp [6]: 13.2 ×10⁻⁶ cm/s
motor adverse effects (rotarod test) [7]: no motor adverse effects
RA @ 1000nM [8]: 47%
RA @ 10000nM [8]: 94%
RA @ 1000nM [9]: 100%
RA @ 10000nM [9]: 90%
RA @ 1000nM [10]: 92%
RA @ 10000nM [10]: 97%
RA @ 1000nM [11]: 84%
RA @ 10000nM [11]: 78%
RA @ 1000nM [12]: 100%
RA @ 10000nM [12]: 98%
RA @ 1000nM [13]: 100%
RA @ 10000nM [13]: 100%
RA @ 1000nM [14]: 100%
RA @ 10000nM [14]: 100%
RA @ 1000nM [15]: 100%
RA @ 10000nM [15]: 100%
RA @ 1000nM [16]: 100%
RA @ 10000nM [16]: 100%
RA @ 1000nM [17]: 100%
RA @ 10000nM [17]: 100%
RA @ 1000nM [18]: 100%
RA @ 10000nM [18]: 79%
RA @ 1000nM [19]: 93%
RA @ 10000nM [19]: 92%
RA @ 1000nM [20]: 93%
RA @ 10000nM [20]: 84%
RA @ 1000nM [21]: 90%
RA @ 10000nM [21]: 90%
RA @ 1000nM [22]: 91%
RA @ 10000nM [22]: 91%
RA @ 1000nM [23]: 100%
RA @ 10000nM [23]: 100%
RA @ 1000nM [24]: 100%
RA @ 10000nM [24]: 100%
RA @ 1000nM [25]: 94%
RA @ 10000nM [25]: 100%
escape latency, acquisition phase (days 1–6) of MWM [26]: statistically significant decrease in escape latency
latency to NW zone entry (MWM day 7, drug-off) ([26]; vs LPS-treated control, p < 0.05): statistically significant difference
IC50 [27]: 772 nM and 350 ng/mL
RA @ 1000nM [28]: 100%
RA @ 10000nM [28]: 94%
RA @ 1000nM [29]: 96%
RA @ 10000nM [29]: 94%
RA @ 1000nM [30]: 100%
RA @ 10000nM [30]: 79%
efficacy in PA task [31]: not statistically significantly effective
step-through latency, retention trial (PA task) [31]: statistically significant prolonged step-through latency
RA @ 1000nM [32]: 100%
RA @ 10000nM [32]: 100%
RA @ 1000nM [33]: 100%
RA @ 10000nM [33]: 93%
RA @ 1000nM [34]: 100%
RA @ 10000nM [34]: 100%
RA @ 1000nM [35]: 100%
RA @ 10000nM [35]: 99%
RA @ 1000nM [36]: 81%
RA @ 10000nM [36]: 85%
RA @ 1000nM [37]: 100%
RA @ 10000nM [37]: 100%
RA @ 1000nM [38]: 79%
RA @ 10000nM [38]: 86%
RA @ 1000nM [39]: 92%
RA @ 10000nM [39]: 92%

CC(C)Cn1ncc2cc(Cc3ccc(F)cc3F)c(C(=O)NCCN(C)C)cc21 [Compound 94, 5-(2,4-Difluorobenzyl)-N-(2-(dimethylamino)ethyl)-1-isobutyl-1H-indazole-6-carboxamide]
RA @ 1000nM [1]: 100%
RA @ 10000nM [1]: 100%
RA @ 1000nM [2]: 82%
RA @ 10000nM [2]: 87%
cell viability [3]: did not affect cell viability
RA @ 1000nM [4]: 86%
RA @ 10000nM [4]: 95%
RA @ 1000nM [5]: 100%
RA @ 10000nM [5]: 100%
Papp [6]: 10.4 ×10⁻⁶ cm/s
motor adverse effects (rotarod test) [7]: no motor adverse effects
RA @ 1000nM [8]: 100%
RA @ 10000nM [8]: 100%
RA @ 1000nM [9]: 100%
RA @ 10000nM [9]: 100%
RA @ 1000nM [10]: 86%
RA @ 10000nM [10]: 85%
RA @ 1000nM [11]: 74%
RA @ 10000nM [11]: 81%
RA @ 1000nM [12]: 96%
RA @ 10000nM [12]: 93%
RA @ 1000nM [13]: 100%
RA @ 10000nM [13]: 100%
RA @ 1000nM [14]: 100%
RA @ 10000nM [14]: 100%
RA @ 1000nM [15]: 95%
RA @ 10000nM [15]: 100%
RA @ 1000nM [16]: 77%
RA @ 10000nM [16]: 95%
RA @ 1000nM [17]: 100%
RA @ 10000nM [17]: 100%
RA @ 1000nM [18]: 77%
RA @ 10000nM [18]: 89%
RA @ 1000nM [19]: 100%
RA @ 10000nM [19]: 93%
RA @ 1000nM [20]: 86%
RA @ 10000nM [20]: 79%
RA @ 1000nM [21]: 85%
RA @ 10000nM [21]: 97%
RA @ 1000nM [22]: 90%
RA @ 10000nM [22]: 82%
RA @ 1000nM [23]: 100%
RA @ 10000nM [23]: 100%
RA @ 1000nM [24]: 100%
RA @ 10000nM [24]: 1.3%
RA @ 1000nM [25]: 100%
RA @ 10000nM [25]: 97%
escape latency, acquisition phase (days 1–6) of MWM [26]: statistically significant decrease in escape latency from day 2
IC50 [27]: 652 nM and 270 ng/mL
RA @ 1000nM [28]: 95%
RA @ 10000nM [28]: 100%
RA @ 1000nM [29]: 94%
RA @ 10000nM [29]: 100%
RA @ 1000nM [30]: 100%
RA @ 10000nM [30]: 86%
efficacy in PA task [31]: not statistically significantly effective
step-through latency, retention trial (PA task) [31]: statistically significant prolonged step-through latency
RA @ 1000nM [32]: 98%
RA @ 10000nM [32]: 69%
RA @ 1000nM [33]: 100%
RA @ 10000nM [33]: 100%
RA @ 1000nM [34]: 96%
RA @ 10000nM [34]: 100%
RA @ 1000nM [35]: 93%
RA @ 10000nM [35]: 94%
RA @ 1000nM [36]: 79%
RA @ 10000nM [36]: 53%
RA @ 1000nM [37]: 100%
RA @ 10000nM [37]: 98%
RA @ 1000nM [38]: 100%
RA @ 10000nM [38]: 100%
RA @ 1000nM [39]: 96%
RA @ 10000nM [39]: 76%

From PMC12406203 (Journal of Medicinal Chemistry, 2025)
